Columns and labels:
[1] = tested on: human glioblastoma cells U87-MG; assay: Cytotoxicity on U87-MG, CellTiter Glo viability after 72 h; type: cell-based; conditions: U-87 MG
Protocol: (§1) The lines U87-MG and A549 were obtained from the American Type Culture Collection (Rockville, MD, USA) and were cultured according to the supplier's instructions. The human glioblastoma cells U87-MG were cultured in Dulbecco […] (DMEM) containing 10% of FCS and 1% of L-glutamine. The lung cancer cells A549 were cultured in RPMI1640 medium containing 10% of FCS and 1% of L-glutamine. The cell lines were maintained at 37° C. in a humidified atmosphere containing 5% CO2. The products were tested at 10 concentrations in triplicate and the cellular viability was evaluated after 72 h of treatment using the CellTiter Glo assay (Promega), which allows the number of live cells to be measured by luminescence (quantification of ATP).
(§2) Thus, the cells were seeded in 96-well plates (2.5×10^3 cells/well) each containing 90 μL of growth medium. After culture for 24 hours, the wells were supplemented with 10 μL of medium containing ten decreasing concentrations of the test compound dissolved in DMSO (less than 0.1% in each preparation). After incubation for 72 h, 100 μL of Cell Titer GLo reagent was added in the space of 15 min before quantifying the luminescence emitted using a microplate reader. The dose-response curve was analyzed using Graph Prism software and the activity of the molecules is expressed in the form of IC50.

[2] = tested on: lung cancer cells A549; assay: Cytotoxicity on A549, CellTiter Glo viability after 72 h; type: cell-based; conditions: Homo sapiens, A549, 72 h
Protocol: as §1, §2

[3] = target: ORD domain (OSBP-Related Domain) of the protein OSBP (Homo sapiens (Human), UniProt P22059); assay: Inhibition of DHE transport between liposomes catalyzed by the purified ORD domain of OSBP (FRET, robotized assay); type: biochemical; conditions: purified ORD domain 200 nM, liposomes 130 μM, 37° C., compound 50 nM to 3 μM, triplicate; read-out: Affinity for the target OSBP (Ki)
Protocol: Measurement of the inhibitory activity on OSBP is carried out by a robotized assay in the ORD domain (OSBP-Related Domain, in English) purified of the protein OSBP. The measurements are carried out according to a protocol using two preparations of liposomes: • The donor liposomes (A) contain a fluorescent sterol (DHE (dehydroergosterol)); • The acceptor liposomes (B) contain a fluorescent lipid (dansyl PE (1,2-dioleoyl-sn-glycero-3-phosphoethanolamine-N-(5-dimethylamino-1-naphthalenesulfonyl) (ammonium salt)) whose excitation spectrum covers the emission spectrum of DHE.
Transport of DHE from liposomes A to liposomes B catalyzed by the ORD domain is accompanied by a FRET signal between DHE and Dansyl-PE. Based on this signal, the kinetics of transport can be measured in real time. This measurement of fluorescence is carried out on a microplate in a TECAN Infinite 1000 Pro instrument (temperature=37° C.). At the beginning, each measurement well contains liposomes B (130 μM), ORD domain (200 nM) and the test compound. At time t=5 min, liposomes A (130 μM) are added to start the exchange reaction. Each compound is tested in triplicate for final concentrations from 50 nM to 3 μM. The time constant (k) obtained for the kinetics in each case is then represented as a function of the concentration of the analog. From this representation, an inhibition constant is determined for each compound. The affinity constants Ki are classified as follows: • Very strong affinity Ki<10 nM • Good affinity Ki from 10 to 100 nM • Low affinity Ki from 100 to 2000 nM
The compounds, other than the prodrugs, having a Ki<100 nM are regarded as active on OSBP.

[4] = Metabolic stability in mouse hepatic microsomes (LC-MS/MS); type: in vitro ADME; conditions: mouse microsomes 0.5 mg/mL, 2.5 μM, NADPH
Protocol: (§3) The compounds are placed in mouse plasma and mouse microsomes, and their stability is evaluated by monitoring by UPLC-MS/MS.
(§4) For plasma stability, the concentration tested is 2.5 μM and the incubation volume is 50 μL. The incubation times are 0, 15, 30, 45, 60 and 120 minutes. Protein precipitation is then performed on the samples, and then the latter are analyzed by UPLC-MS/MS. The percentage of the compound remaining as well as its elimination half-life are thus obtained. For the metabolic stability in microsomes, the concentration of test compound is 2.5 μM, and the incubation volume is 400 μL. The concentration of mouse microsomes is 0.5 mg/mL. The incubation times are 0, 15, 30 and 45 minutes. The cofactor used is NADPH. Two negative controls are carried out, one without microsomes and without cofactor at 0 and 45 minutes, and one without cofactor and with microsome at 0 and 45 minutes. A positive control is carried out in the presence of diphenhydramine. The samples are analyzed by LC-MS/MS. The intrinsic clearance and the half-life are thus obtained.
(§5) LC-MS/MS is carried out on a UPLC Acquity™ coupled to a XEVO TQ-S(WATERS).
(§6) Liquid chromatography is carried out on an Acquity UPLC column BEH 1.7 μm, 2.1×50 mm with a gradient of 4 minutes water+0.1% […]/acetonitrile 95:5 to 100:0. The column temperature is +50° C. and the temperature of the injector is +4° C. Acquisition in mass spectrometry is performed by MRM (Multiple Reaction Monitoring), with positive electrospray ionization.

[5] = Stability in mouse plasma (UPLC-MS/MS); type: in vitro ADME; conditions: 2.5 μM
Protocol: as §3, §4, §5, §6

Chain of ORD domain (OSBP-Related Domain) of the protein OSBP (P22059 401-807): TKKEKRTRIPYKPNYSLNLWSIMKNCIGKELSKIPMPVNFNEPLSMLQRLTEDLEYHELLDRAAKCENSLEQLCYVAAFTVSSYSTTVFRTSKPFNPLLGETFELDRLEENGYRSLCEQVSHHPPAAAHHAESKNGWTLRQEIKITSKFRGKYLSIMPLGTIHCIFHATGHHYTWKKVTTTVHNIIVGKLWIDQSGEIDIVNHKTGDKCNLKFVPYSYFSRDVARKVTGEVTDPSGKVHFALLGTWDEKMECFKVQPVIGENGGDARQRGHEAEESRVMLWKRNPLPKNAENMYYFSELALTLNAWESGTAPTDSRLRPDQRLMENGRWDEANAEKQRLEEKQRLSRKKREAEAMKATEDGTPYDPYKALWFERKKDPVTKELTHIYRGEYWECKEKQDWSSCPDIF

Structure (SMILES)	Ki [3] [nM]	clearance in microsomal medium (intrinsic clearance) [4]	metabolic stability in mouse microsomes [4] [%]	metabolic stability in mouse plasma at 120 minutes (percentage of compound remaining) [5] [%]	IC50 [1] [nM]	IC50 [2] [nM]
CC1(C)[C@H](O)CC[C@@]2(C)Oc3c(c(O)cc4oc(-c5ccc(O)cc5)c(O)c(=O)c34)C[C@H]12 [Compound 11, (7aR,9R,11aR)-2,6,9-trihydroxy-3-(4-hydroxyphenyl)-8,8,11a-trimethyl-7a,8,9,10,11,11a-hexahydro-1H,7H-pyrano[2,3-c]xanthen-1-one]	–	–	–	–	2300	6300
COCOc1cc2oc(-c3ccccc3)cc(=O)c2c2c1C[C@H]1C(C)(C)[C@@H](O)CC[C@]1(C)O2 [Compound 6, (7aS,9S,11aS)-9-hydroxy-6-(methoxymethoxy)-8,8,11a-trimethyl-3-phenyl-7a,8,9,10,11,11a-hexahydro-1H,7H-pyrano[2,3-c]xanthen-1-one]	100 to 2000	–	–	–	4310	> 10000
COCOc1cc2oc(-c3ccccc3)cc(=O)c2c2c1C[C@@H]1C(C)(C)[C@H](O)CC[C@@]1(C)O2 [Compound 4, (7aR,9R,11aR)-9-hydroxy-6-(methoxymethoxy)-8,8,11a-trimethyl-3-phenyl-7a,8,9,10,11,11a-hexahydro-1H,7H-pyrano[2,3-c]xanthen-1-one]	10 to 100	–	–	–	440	–
COCOc1ccc(-c2cc(=O)c3c4c(c(OCOC)cc3o2)C[C@@H]2C(C)(C)[C@H](O)CC[C@@]2(C)O4)cc1 [Compound 8, (7aR,9R,11aR)-9-hydroxy-6-(methoxymethoxy)-3-(4-(methoxymethoxy)phenyl)-8,8,11a-trimethyl-7a,8,9,10,11,11a-hexahydro-1H,7H-pyrano[2,3-c]xanthen-1-one]	10 to 100	–	–	–	160	–
CC1(C)[C@H](O)CC[C@@]2(C)Oc3c(c(O)cc4oc(-c5ccc(O)cc5)cc(=O)c34)C[C@H]12 [Compound 9, (7aR,9R,11aR)-6,9-dihydroxy-3-(4-hydroxyphenyl)-8,8,11a-trimethyl-7a,8,9,10,11,11a-hexahydro-1H,7H-pyrano[2,3-c]xanthen-1-one]	–	26 μL/min/mg of protein	100	100	3780	–
COCOc1cc2oc(-c3ccccc3)cc(=O)c2c2c1C[C@@H]1C(C)(C)[C@H](OCOC)CC[C@@]1(C)O2 (racemic) [Compound 2, (7aR*,9R*,11aR*)-6,9-bis(methoxymethoxy)-8,8,11a-trimethyl-3-phenyl-7a,8,9,10,11,11a-hexahydro-1H,7H-pyrano[2,3-c]xanthen-1-one]	100 to 2000	–	–	–	> 10000	> 10000
COCOc1ccc(-c2oc3cc(OCOC)c4c(c3c(=O)c2OCOC)O[C@]2(C)CC[C@@H](O)C(C)(C)[C@H]2C4)cc1 [Compound 10, (7aR,9R,11aR)-9-hydroxy-2,6-bis(methoxymethoxy)-3-(4-(methoxymethoxy)phenyl). 8,8,11a-trimethyl-7a,8,9,10,11,11a-hexahydro-1H,7H-pyrano[2,3-c]xanthen-1-one]	–	52 μL/min/mg of protein	99	90	4340	–

Continued, in another order:

Ki [3] [nM]	clearance in microsomal medium (intrinsic clearance) [4]	metabolic stability in mouse microsomes [4] [%]	metabolic stability in mouse plasma at 120 minutes (percentage of compound remaining) [5] [%]	Structure (SMILES)	IC50 [1] [nM]	IC50 [2] [nM]
< 10	–	–	–	CC1(C)[C@H](O)CC[C@@]2(C)Oc3c(c(O)cc4oc(-c5ccccc5)cc(=O)c34)C[C@H]12 [Compound 5, (7aR,9R,11aR)-6,9-dihydroxy-8,8,11a-trimethyl-3-phenyl-7a,8,9,10,11,11a-hexahydro-1H,7H-pyrano[2,3-c]xanthen-1-one]	280	1380
< 10	–	–	–	COCOc1cc2oc(-c3ccccc3)cc(=O)c2c2c1C[C@@H]1C(C)(C)[C@H](O)CC[C@@]1(C)O2 (racemic) [Compound 1, (7aR*9R*,11aR*)-9-hydroxy-6-(methoxymethoxy)-8,8,11a-trimethyl-3-phenyl-7a,8,9,10,11,11a-hexahydro-1H,7H-pyrano[2,3-c]xanthen-1-one]	540	5080
< 10	152 μL/min/mg of protein	88	99	CC1(C)[C@H](O)CC[C@@]2(C)Oc3c(c(O)cc4oc(-c5ccccc5)cc(=O)c34)C[C@H]12 (racemic) [Compound 3, (7aR*,9R*,11aR*)-6,9-dihydroxy-8,8,11a-trimethyl-3-phenyl-7a,8,9,10,11,11a-hexahydro-1H,7H-pyrano[2,3-c]xanthen-1-one]	340	3400
< 10	–	–	–	CC1(C)[C@@H](O)CC[C@]2(C)Oc3c(c(O)cc4oc(-c5ccccc5)cc(=O)c34)C[C@@H]12 [Compound 7, (7aS,9S,11aS)-6,9-dihydroxy-8,8,11a-trimethyl-3-phenyl-7a,8,9,10,11,11a-hexahydro-1H,7H-pyrano[2,3-c]xanthen-1-one]	1890	–
